PubChem BioAssay AID1963435 (Molecular Pharmacology Branch, DTP, NCI, 2024)

System: PANC-1 complex spheroid growth, percent test/control
Test: Anticancer human tumor PANC-1 cell line growth inhibition [Asc];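 note: spheroids exposed to agents for 7 days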;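 for viability, T/C: percent viability relative to DMSO vehicle wells taken as 100%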
Details: for IC50: curve of first compound; for viability, T/C: stronger effect = lower value
Method in brief: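 Tumor cells were grown as multicellular spheroids with stromal HUVEC and mesenchymal stem cells and treated singly or in combination. Concentrations fell in half-log steps from the clinical Cmax, or from 10 microM where none was known.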

[1] = second compound 0.0316 µM, first compound 0.00316 µM
[2] = second compound 0.0316 µM, first compound 0.01 µM
[3] = second compound 0.0316 µM, first compound 0.0316 µM
[4] = second compound 0.0316 µM, first compound 0.1 µM
[5] = second compound 0.0316 µM, first compound 0.316 µM
[6] = second compound 0.0316 µM, first compound 1 µM
[7] = second compound 0.1 µM, first compound 0.00316 µM
[8] = second compound 0.1 µM, first compound 0.01 µM
[9] = second compound 0.1 µM, first compound 0.0316 µM
[10] = second compound 0.1 µM, first compound 0.1 µM
[11] = second compound 0.1 µM, first compound 0.316 µM
[12] = second compound 0.1 µM, first compound 1 µM
[13] = second compound 0.316 µM, first compound 0.00316 µM
[14] = second compound 0.316 µM, first compound 0.01 µM
[15] = second compound 0.316 µM, first compound 0.0316 µM
[16] = second compound 0.316 µM, first compound 0.1 µM
[17] = second compound 0.316 µM, first compound 0.316 µM
[18] = second compound 0.316 µM, first compound 1 µM
[19] = second compound 1 µM, first compound 0.00316 µM
[20] = second compound 1 µM, first compound 0.01 µM
[21] = second compound 1 µM, first compound 0.0316 µM
[22] = second compound 1 µM, first compound 0.1 µM
[23] = second compound 1 µM, first compound 0.316 µM
[24] = second compound 1 µM, first compound 1 µM
[25] = second compound 3.16 µM, first compound 0.00316 µM
[26] = second compound 3.16 µM, first compound 0.01 µM
[27] = second compound 3.16 µM, first compound 0.0316 µM
[28] = second compound 3.16 µM, first compound 0.1 µM
[29] = second compound 3.16 µM, first compound 0.316 µM
[30] = second compound 3.16 µM, first compound 1 µM
[31] = second compound 10 µM, first compound 0.00316 µM
[32] = second compound 10 µM, first compound 0.01 µM
[33] = second compound 10 µM, first compound 0.0316 µM
[34] = second compound 10 µM, first compound 0.1 µM
[35] = second compound 10 µM, first compound 0.316 µM
[36] = second compound 10 µM, first compound 1 µM

## CCN1CCN(Cc2ccc(Nc3ncc(F)c(-c4cc(F)c5nc(C)n(C(C)C)c5c4)n3)nc2)CC1 + Cc1c(S(C)(=O)=O)c(-c2cc(F)cc(N3CCN(c4ccc(NS(=O)(=O)c5ccc(NC(CCN6CCC(C(=O)OCCCP(=O)(O)O)CC6)CSc6ccccc6)c(S(=O)(=O)C(F)(F)F)c5)cc4)CC3)c2)c(-c2ccc(Cl)cc2)n1C(C)C
Second compound 0.0316 µM
  IC50: > 1000 nM
Second compound 0.1 µM
  IC50: > 1000 nM
Second compound 0.316 µM
  IC50: > 1000 nM
Second compound 1 µM
  IC50: > 1000 nM
Second compound 3.16 µM
  IC50: > 1000 nM
Second compound 10 µM
  IC50: > 1000 nM
[1]
  viability, T/C: 93.5%
[2]
  viability, T/C: 108%
[3]
  viability, T/C: 102%
[4]
  viability, T/C: 121%
[5]
  viability, T/C: 124%
[6]
  viability, T/C: 129%
[7]
  viability, T/C: 96%
[8]
  viability, T/C: 100%
[9]
  viability, T/C: 99.5%
[10]
  viability, T/C: 115%
[11]
  viability, T/C: 121%
[12]
  viability, T/C: 137%
[13]
  viability, T/C: 105%
[14]
  viability, T/C: 116%
[15]
  viability, T/C: 108%
[16]
  viability, T/C: 103%
[17]
  viability, T/C: 123%
[18]
  viability, T/C: 127%
[19]
  viability, T/C: 104%
[20]
  viability, T/C: 101%
[21]
  viability, T/C: 115%
[22]
  viability, T/C: 126%
[23]
  viability, T/C: 115%
[24]
  viability, T/C: 125%
[25]
  viability, T/C: 110%
[26]
  viability, T/C: 104%
[27]
  viability, T/C: 102%
[28]
  viability, T/C: 120%
[29]
  viability, T/C: 123%
[30]
  viability, T/C: 125%
[31]
  viability, T/C: 171%
[32]
  viability, T/C: 188%
[33]
  viability, T/C: 174%
[34]
  viability, T/C: 175%
[35]
  viability, T/C: 168%
[36]
  viability, T/C: 140%

## O=C(c1ccc(F)c(F)c1Nc1ccc(I)cc1F)N1CC(O)([C@@H]2CCCCN2)C1 + Cc1c(S(C)(=O)=O)c(-c2cc(F)cc(N3CCN(c4ccc(NS(=O)(=O)c5ccc(NC(CCN6CCC(C(=O)OCCCP(=O)(O)O)CC6)CSc6ccccc6)c(S(=O)(=O)C(F)(F)F)c5)cc4)CC3)c2)c(-c2ccc(Cl)cc2)n1C(C)C
Second compound 0.0316 µM
  IC50: > 1000 nM
Second compound 0.1 µM
  IC50: > 1000 nM
Second compound 0.316 µM
  IC50: > 1000 nM
Second compound 1 µM
  IC50: > 1000 nM
Second compound 3.16 µM
  IC50: > 1000 nM
Second compound 10 µM
  IC50: > 1000 nM
[1]
  viability, T/C: 82.4%
[2]
  viability, T/C: 88%
[3]
  viability, T/C: 85.4%
[4]
  viability, T/C: 86.8%
[5]
  viability, T/C: 93%
[6]
  viability, T/C: 89%
[7]
  viability, T/C: 96.5%
[8]
  viability, T/C: 109%
[9]
  viability, T/C: 96%
[10]
  viability, T/C: 84.6%
[11]
  viability, T/C: 91.8%
[12]
  viability, T/C: 91.1%
[13]
  viability, T/C: 99.8%
[14]
  viability, T/C: 93.5%
[15]
  viability, T/C: 86.2%
[16]
  viability, T/C: 89.6%
[17]
  viability, T/C: 83.8%
[18]
  viability, T/C: 84%
[19]
  viability, T/C: 89.9%
[20]
  viability, T/C: 87.2%
[21]
  viability, T/C: 88%
[22]
  viability, T/C: 87.7%
[23]
  viability, T/C: 94.8%
[24]
  viability, T/C: 85%
[25]
  viability, T/C: 104%
[26]
  viability, T/C: 97.1%
[27]
  viability, T/C: 89.3%
[28]
  viability, T/C: 88.6%
[29]
  viability, T/C: 83.3%
[30]
  viability, T/C: 78.1%
[31]
  viability, T/C: 173%
[32]
  viability, T/C: 175%
[33]
  viability, T/C: 157%
[34]
  viability, T/C: 132%
[35]
  viability, T/C: 142%
[36]
  viability, T/C: 131%
